Experimental data taken from paper PMC10020666, “Oxidation modulates LINGO2-induced inactivation of large conductance, Ca^2+-activated potassium channels” (The Journal of Biological Chemistry, 2023).
Entries after “also recorded” stand apart in the source; their conditions may differ. Where two headings read alike, the source gives them in different places. Square brackets hold non-standard residues; d marks the D form. Peptide text beside a SMILES is read from it. Met(O) = CS(=O)CC[C@H](N)C(=O)O

B1: LINGO2 tail peptide Ac-RRFNMKM(O)I-NH2 (peptide)
peptide: Ac-RRFNMK[Met(O)]I-NH2
SMILES: CC[C@H](C)[C@H](NC(=O)[C@H](CCS(C)=O)NC(=O)[C@H](CCCCN)NC(=O)[C@H](CCSC)NC(=O)[C@H](CC(N)=O)NC(=O)[C@H](Cc1ccccc1)NC(=O)[C@H](CCCNC(=N)N)NC(=O)[C@H](CCCNC(=N)N)NC(C)=O)C(N)=O
B2: LINGO2 tail peptide Ac-RRFNM(O)KMI-NH2 (peptide)
peptide: Ac-RRFN[Met(O)]KMI-NH2
SMILES: CC[C@H](C)[C@H](NC(=O)[C@H](CCSC)NC(=O)[C@H](CCCCN)NC(=O)[C@H](CCS(C)=O)NC(=O)[C@H](CC(N)=O)NC(=O)[C@H](Cc1ccccc1)NC(=O)[C@H](CCCNC(=N)N)NC(=O)[C@H](CCCNC(=N)N)NC(C)=O)C(N)=O
B3: LINGO2 tail peptide Ac-RRFNM(O)KM(O)I-NH2 (peptide)
peptide: Ac-RRFN[Met(O)]K[Met(O)]I-NH2
SMILES: CC[C@H](C)[C@H](NC(=O)[C@H](CCS(C)=O)NC(=O)[C@H](CCCCN)NC(=O)[C@H](CCS(C)=O)NC(=O)[C@H](CC(N)=O)NC(=O)[C@H](Cc1ccccc1)NC(=O)[C@H](CCCNC(=N)N)NC(=O)[C@H](CCCNC(=N)N)NC(C)=O)C(N)=O

Columns and labels:
[1] = biological target: T1, BKα currents (BK channels) in HEK cell patches (Oryctolagus cuniculus, UniProt Q9BG98); assay: Inhibition of BKα currents by synthetic LINGO2 tail peptides (excised inside-out patch clamp); type: cell-based, rabbit; conditions: 1 μM Ca2+; for IC50Last5ms increase compared to WT LINGO2 peptide / 95% Confidence Intervals of IC50Last5ms: +160 mV; for IC50Last5ms increase compared to WT LINGO2 peptide: p < 0.001, extra sum of squares F-test; for IC50: step to +160 mV for 100 ms from -60 mV, inside-out patches, 37 °C, pH 7.2, Hill-Langmuir fit, mean ± SD; for Inactivation of BK currents by peptide: step to +160 mV, rate compared at 1 μM peptide
T1 construct: expressed in transfected cells; host or cells: HEK293 cells, transient transfection with lipofectamine (BKα cDNA plus GFP plasmid)
T1 sequence (Q9BG98 whole entry): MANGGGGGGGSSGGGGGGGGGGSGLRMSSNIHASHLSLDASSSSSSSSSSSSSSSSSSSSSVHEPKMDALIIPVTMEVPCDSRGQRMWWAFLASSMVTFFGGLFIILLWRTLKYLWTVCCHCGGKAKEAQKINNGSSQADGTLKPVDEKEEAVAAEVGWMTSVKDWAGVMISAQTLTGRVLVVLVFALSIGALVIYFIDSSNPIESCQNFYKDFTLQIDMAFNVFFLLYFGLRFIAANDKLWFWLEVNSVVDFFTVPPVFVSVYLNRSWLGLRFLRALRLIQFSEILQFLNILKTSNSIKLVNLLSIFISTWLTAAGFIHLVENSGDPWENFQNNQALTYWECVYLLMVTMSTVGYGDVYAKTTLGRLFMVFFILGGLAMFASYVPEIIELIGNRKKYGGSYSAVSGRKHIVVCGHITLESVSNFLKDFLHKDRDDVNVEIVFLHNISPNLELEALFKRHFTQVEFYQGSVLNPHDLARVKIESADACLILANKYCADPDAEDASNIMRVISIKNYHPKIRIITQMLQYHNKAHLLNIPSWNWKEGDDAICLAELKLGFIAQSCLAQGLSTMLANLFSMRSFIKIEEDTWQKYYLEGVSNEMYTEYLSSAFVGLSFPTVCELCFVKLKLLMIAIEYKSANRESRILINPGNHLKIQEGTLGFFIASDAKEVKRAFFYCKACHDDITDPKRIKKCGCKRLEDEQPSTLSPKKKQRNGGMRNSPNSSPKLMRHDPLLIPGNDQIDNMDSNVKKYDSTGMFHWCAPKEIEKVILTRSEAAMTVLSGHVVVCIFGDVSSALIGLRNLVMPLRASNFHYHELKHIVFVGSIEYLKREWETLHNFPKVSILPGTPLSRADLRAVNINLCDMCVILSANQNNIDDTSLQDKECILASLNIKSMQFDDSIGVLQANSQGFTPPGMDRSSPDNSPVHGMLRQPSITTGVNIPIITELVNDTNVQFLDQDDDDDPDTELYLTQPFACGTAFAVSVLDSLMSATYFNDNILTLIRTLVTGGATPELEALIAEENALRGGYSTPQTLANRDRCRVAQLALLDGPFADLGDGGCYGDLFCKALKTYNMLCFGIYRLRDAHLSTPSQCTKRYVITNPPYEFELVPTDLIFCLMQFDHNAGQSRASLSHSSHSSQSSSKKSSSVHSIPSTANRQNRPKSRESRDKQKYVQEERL
Method: (§1) All excised patch experiments were performed at 37 °C in 140 mM symmetrical K^+ solutions which contained 140 mM KCl, 10 mM glucose, 10 mM Hepes, and either 1 mM ethylene glycol-bis(β-amino ether)-N,N,N′,N′-tetraacetic acid (EGTA (for free [Ca^2+] 100 nM to 300 nM) or 1 mM hydroxyethylethylenediaminetriacetic acid (HEDTA for free [Ca^2+] 1 μM to 10 μM) and the pH of all solutions was adjusted to 7.2 with KOH. These solutions were made with double-distilled, deionized, filtered water from a MilliQ water purification system. The pipette solution contained 100 nM free Ca^2+. We used “Chelator” (https://www.ru.nl/animal/research/chelator/) to calculate the total amount of Ca^2+ required, as per Schoenmakers et al., ([40]) and free Ca^2+ concentrations were checked with a Ca^2+ sensitive electrode.
(§2) During experiments, the dish containing HEK cells was superfused with Hanks solution, which contained (in mM) 129.8 Na^+, 5.8 K^+, 135 Cl^-, 4.17 HCO3^-, 0.34 HPO4^2-, 0.44 H2PO4^-, 1.8 Ca^2+, 0.9 Mg^2+, 0.4 SO4^2-, 10 glucose, 2.9 sucrose, and 10 Hepes, and its pH was adjusted to 7.4 with NaOH. In addition, the patch under study was continuously superfused by means of a close delivery system consisting of a pipette (tip diameter 200 μm) placed approximately 300 μm away from the cell. This could be switched, with a dead-space time of around 5 s, to a solution containing a drug.
(§3) Electrodes were pulled from Corning borosilicate glass (1.5 mm O.D. × 0.86 mm I.D.) using a Sutter P-97 pipette puller and fire polished using a Narashige MF 83 microforge. Pipettes had resistances of 2 to 5 MΩ when filled with recording solutions and series resistance was compensated by up to 80%. Standard single-channel patch clamp recording methods were used. Voltage clamp commands were delivered via an Axopatch 200B patch clamp amplifier (Axon Instruments) connected to a Digidata 1322A AD/DA converter (Axon Instruments) interfaced to computers running pClamp software (Axon Instruments). Data was acquired at 100 KHz and filtered at 2 KHz or 5 KHz. Patches were held at either −60 mV or −100 mV and depolarized in 20 mV increments to 200 mV. Residual capacitance and leakage currents were subtracted using either a P/4 protocol or offline by manual leak subtraction.
(§4) The human LINGO2 transcript used [NM_001354575.2] was untagged in a pcDNA 3.1 vector (VectorBuilder). The α subunit of the rabbit BK channel was isolated from rabbit urethral smooth muscle and cloned using the pcDNA TOPO DNA cloning kit (Life Technologies). The identifiesd transcript corresponded to the ZERO variant of mouse BKα and to variant 2 (NM_002247.3) of human BKα. We used 100 ng ml^−1 cDNA for BKα only transfections, whereas a 100:500 ng ml^−1 cDNA ratio was used for BKα:LINGO2 and BKα:LINGO1 cotransfections for inside-out patch recordings. GFP (150 ng ml^−1) was included in all transfections except those used for Figure 2, C and D. cDNA was transiently transfected into HEK cells using lipofectamine. Site-directed mutagenesis used the Phusion kit (Thermo Fisher Scientific) method ([41]) and all mutations were confirmed by sequencing.
(§5) HEK293 cells were cultured in Dulbecco's modified Eagle's medium + MEM media containing 10% fetal bovine serum and 1% Penicillin-Streptomycin antibiotics at 37 °C, and 95% humidifying incubator containing 5% CO2. Subculturing was done by 0.05% Trypsin-EDTA solution.
Concentration–effect data were fitted with a Hill–Langmuir equation:[4] I/Icontrol=1/{1+10^ˆ(log[Drug]−logIC50)} where, I was the current recorded in the drug, Icontrol was the current in the absence of drug, IC50 was the half-maximal effective concentration, and [Drug] was the concentration variable.
All data is presented as mean ± SD and was analyzed with Prism software (GraphPad). Individual data points are also shown in bar charts. […]

BK:LINGO2 channels = assay: Effect of oxidizing/reducing agents on BK:LINGO2 currents (inside-out patch, step to +160 mV); type: cell-based, rabbit BKα, human LINGO2
Method: as §1, §2, §3, §4, §5
All data is presented as mean ± SD and was analyzed with Prism software (GraphPad). Individual data points are also shown in bar charts. Statistical differences were assessed using either paired or unpaired nonparametric tests (Wilcoxin signed-rank test, Mann–Whitney test), or the extra sum of squares F-test, as appropriate. Comparisons of three or more nonparametric data sets used Friedman’s test followed by Dunn’s test for multiple comparisons, whereas ANOVA was used for three or more parametric data sets. p < 0.05 was taken as significant.

[2] = biological target: α subunit of the rabbit BK channel (large conductance, Ca2+ and voltage-activated K+ channel) (rabbit)
[3] = n = 5 (M605 oxidized), 6 (M603 oxidized), 7 (both), read-out: IC50Last5ms (half maximal block of current amplitude in last 5 ms of pulse)

Row | Molecule | IC50 [1, 3] | Inactivation of BK currents by peptide [1] | IC50Last5ms: concentration of the peptide that produced half maximal block in BKα current amplitude in the last 5 ms of a pulse to +160 mV (inside-out HEK patches, 1 μM Ca2+) [2] | further results
1 | CC[C@H](C)[C@H](NC(=O)[C@H](CC[S+](C)[O-])NC(=O)[C@H](CCCCN)NC(=O)[C@H](CC[S+](C)[O-])NC(=O)[C@H](CC(N)=O)NC(=O)[C@H](Cc1ccccc1)NC(=O)[C@H](CCCNC(=N)N)NC(=O)[C@H](CCCNC(=N)N)NC(C)=O)C(N)=O (stereo partly drawn) [Ac-RRFNM(O)KM(O)I-NH2] (Ac-RRFN[Met(O)]K[Met(O)]I-NH2) | 13900 ± 1100 nM | greatly reduced | – | IC50Last5ms increase compared to WT LINGO2 peptide [1]: ~50 fold; Inactivation of BK currents by peptide ([1]; listed as RRFNM(O)KM(O)I): inactivation was practically abolished at all concentrations tested; Inactivation of BK currents by peptide ([1]; listed as peptide containing Met(O) at both positions): time-dependent inactivation was practically abolished
2 | CC[C@H](C)[C@H](NC(=O)[C@H](CCSC)NC(=O)[C@H](CCCCN)NC(=O)[C@H](CC[S+](C)[O-])NC(=O)[C@H](CC(N)=O)NC(=O)[C@H](Cc1ccccc1)NC(=O)[C@H](CCCNC(=N)N)NC(=O)[C@H](CCCNC(=N)N)NC(C)=O)C(N)=O (stereo partly drawn) [Ac-RRFNM(O)KMI-NH2] (Ac-RRFN[Met(O)]KMI-NH2) | 6900 ± 500 nM | slower than that of the WT peptide | – | IC50Last5ms increase compared to WT LINGO2 peptide [1]: ~27 fold
3 | CC[C@H](C)[C@H](NC(=O)[C@H](CC[S+](C)[O-])NC(=O)[C@H](CCCCN)NC(=O)[C@H](CCSC)NC(=O)[C@H](CC(N)=O)NC(=O)[C@H](Cc1ccccc1)NC(=O)[C@H](CCCNC(=N)N)NC(=O)[C@H](CCCNC(=N)N)NC(C)=O)C(N)=O (stereo partly drawn) [Ac-RRFNMKM(O)I-NH2] (Ac-RRFNMK[Met(O)]I-NH2) | 2300 ± 700 nM | the rate of inactivation was slower compared to that observed with the WT peptide | – | 95% Confidence Intervals of IC50Last5ms ([1]; n = 5-7): 2000 to 2700 nM
4 | O[C@@H](CS)[C@@H](O)CS [DTT] | – | – | – | Effect of DTT alone on peak or sustained currents (BK:LINGO2 channels; 100 μM DTT, 1-5 min, 100 nM Ca2+, 5 to 7 experiments): failed to alter the peak (black circles) or sustained (purple diamonds) currents; Prevention of Ch-T effects by DTT pretreatment / continuous presence (BK:LINGO2 channels; 100 μM DTT, then with Ch-T 5-7 min, 100 nM Ca2+, 5 to 7 experiments): not prevented; also recorded: the effects of Ch-T were unaltered in the continuous presence of DTT; also recorded: resistant to treatment with the cysteine-specific reducing agent DTT; Reversal of Ch-T effects by DTT coapplication (BK:LINGO2 channels; 200 μM Ch-T 1-4 min, then Ch-T + DTT 4-7 min, 4 to 7 experiments): unable to reverse the effects of Ch-T
5 | Ac-RRFNMKMI-NH2 [Ac-RRFNMKMI-NH2] | – | caused inactivation, the rate of which was concentration-dependent | – | 95% Confidence Intervals of IC50Last5ms ([1]; n = 6): 223 to 303 nM; IC50 ([1]; n = 6, read-out: IC50Last5ms (half maximal block of current amplitude in last 5 ms of pulse)): 260 ± 78 nM
6 | Ac-RRFNMKMI-NH2 [LINGO2 tail peptide Ac-RRFNMKMI-NH2] | – | – | 260 nM | –
7 | B1 | – | – | 2300 nM | –
8 | B2 | – | – | 6900 nM | –
9 | B3 | – | – | 13900 nM | –
